Data from patent publication US11584744B2 (UNIVERSITY OF WASHINGTON, priority 2017, dated 2023).
Values after ≈ are worked out from the molar mass of the structure shown. Values joined by “and” are separate entries in the source; they are usually repeats but may differ in a detail not shown here. Equal values may be shown once. Read-outs that look alike come from different tables or passages of the source.

Tests used:
T. cruzi = T. cruzi growth inhibition; format: cell-based, Trypanosoma cruzi; conditions: Trypanosoma cruzi; read-out: (E) T. cruzi EC50
[1] = test system: E. faecium VRE (ATCC 51559); assay: MIC susceptibility testing; format: cell-based, Enterococcus faecium; conditions: E. faecium ATCC 51559; for MIC: Enterococcus faecium, read-out: (I) E. faecium (ATCC 51559) MIC
From the text: Media and culture conditions. Mueller Hinton broth (MHB), cation adjusted Mueller Hinton broth (CA-MHB), and Brain Heart Infusion broth (BHI) were purchased from Becton Dickinson (Franklin Lakes, N.J.). Tryptic soy agar (TSA) plates, TSA with 5% sheep blood plates, and CA-MHB with 3% laked horse blood were purchased from Remel (San Diego, Calif.). MHB was used to assay all Staphylococcus aureus strains. CA-MHB was used for Staphylococcus epidermidis, Enterococcus faecalis, Enterococcus faecium, Escherichia coli, and Pseudomonas aeruginosa. CA-MHB supplemented with 3% laked horse blood was used for Streptococcus pneumoniae and Streptococcus pyogenes. Staphylococcus, Enterococcus, Escherichia, and Pseudomonas strains were cultured at 37° C. with ambient air. Streptococcus strains were cultured in 37° C. with 5% CO2. Separate conditions for radiolabeled precursor uptake assays are described below.
Susceptibility testing: Minimum inhibitory concentration (MIC) determinations were performed in triplicate in 96-well round bottom microtiter plates (Corning, Corning N.Y.) as described by the Clinical and Laboratory Standards Institute (CLSI). Serial two-fold dilutions of compounds were added to plates in 50 μL volumes. An additional 50 μL of media containing bacterial cells (1×10^6 CFUs/mL) was then added to each well. Maximum DMSO concentrations were 0.5%. Plates were incubated at 37° C. for at least 18 h before reading the susceptibility result by optical absorbance (OD600) using a BioTek ELx800. The lowest concentration causing ≥90% growth inhibition compared to the untreated control was recorded as the MIC (and also corresponded to the visual MIC). MICs were measured at least twice and the higher value (if different) was recorded herein.

MetRS (T. brucei) = target: T1, MetRS (T. brucei) (Trypanosoma brucei brucei, UniProt Q38C91); assay: MetRS (T. brucei) enzyme inhibition; format: biochemical
T1 sequence (Q38C91 1-773): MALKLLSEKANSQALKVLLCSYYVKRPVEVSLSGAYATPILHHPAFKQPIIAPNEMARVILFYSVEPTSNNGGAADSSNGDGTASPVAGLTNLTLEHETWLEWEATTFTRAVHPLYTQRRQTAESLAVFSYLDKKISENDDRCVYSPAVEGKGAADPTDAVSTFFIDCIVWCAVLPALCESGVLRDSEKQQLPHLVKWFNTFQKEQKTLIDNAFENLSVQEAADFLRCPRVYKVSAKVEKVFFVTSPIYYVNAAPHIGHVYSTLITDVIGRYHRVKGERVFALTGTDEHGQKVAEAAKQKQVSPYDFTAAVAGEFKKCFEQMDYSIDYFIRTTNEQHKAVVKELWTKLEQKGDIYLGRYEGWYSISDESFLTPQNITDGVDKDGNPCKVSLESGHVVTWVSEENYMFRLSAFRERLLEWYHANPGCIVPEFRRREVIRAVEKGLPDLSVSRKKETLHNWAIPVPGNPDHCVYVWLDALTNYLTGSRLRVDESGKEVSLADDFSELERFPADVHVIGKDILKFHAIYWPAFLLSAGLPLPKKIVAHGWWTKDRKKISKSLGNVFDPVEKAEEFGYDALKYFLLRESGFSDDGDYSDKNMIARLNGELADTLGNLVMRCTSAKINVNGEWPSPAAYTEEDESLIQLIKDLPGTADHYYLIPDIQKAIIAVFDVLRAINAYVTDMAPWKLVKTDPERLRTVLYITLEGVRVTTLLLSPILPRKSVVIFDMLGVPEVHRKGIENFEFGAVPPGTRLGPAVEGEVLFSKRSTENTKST

[2] = test system: S. aureus MSSA (ATCC 29213); assay: MIC susceptibility testing; format: cell-based, Staphylococcus aureus; conditions: S. aureus ATCC 29213; for MIC: Staphylococcus aureus, read-out: (F) S. aureus (ATCC 29213) MIC
MetRS (C. parvum) = MetRS (C. parvum) (Cryptosporidium parvum, UniProt Q5CVN0); assay: MetRS (C. parvum) enzyme inhibition; format: biochemical; conditions: read-out: (C) MetRS (C. parvum) IC50
Sequence of MetRS (C. parvum) (Q5CVN0 entry or part of it): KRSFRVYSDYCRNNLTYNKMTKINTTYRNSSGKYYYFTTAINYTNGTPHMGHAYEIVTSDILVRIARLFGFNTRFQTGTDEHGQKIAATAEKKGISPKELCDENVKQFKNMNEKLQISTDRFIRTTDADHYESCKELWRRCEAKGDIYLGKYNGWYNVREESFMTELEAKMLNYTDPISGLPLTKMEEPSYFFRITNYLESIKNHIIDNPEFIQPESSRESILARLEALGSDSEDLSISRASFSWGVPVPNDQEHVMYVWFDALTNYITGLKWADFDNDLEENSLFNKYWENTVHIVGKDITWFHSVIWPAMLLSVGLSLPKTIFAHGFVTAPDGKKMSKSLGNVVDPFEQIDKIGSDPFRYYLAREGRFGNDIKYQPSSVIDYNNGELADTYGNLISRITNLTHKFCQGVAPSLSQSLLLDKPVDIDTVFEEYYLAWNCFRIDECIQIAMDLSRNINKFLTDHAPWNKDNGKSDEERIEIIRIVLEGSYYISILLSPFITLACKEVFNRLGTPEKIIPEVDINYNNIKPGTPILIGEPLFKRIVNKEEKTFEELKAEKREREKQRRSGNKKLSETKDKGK

C. parvum = C. parvum growth inhibition; format: cell-based, Cryptosporidium parvum; conditions: Cryptosporidium parvum; read-out: (J) C. parvum EC50
[3] = test system: S. aureus MRSA (ATCC 33591); assay: MIC susceptibility testing; format: cell-based, Staphylococcus aureus; conditions: MRSA ATCC33591; for MIC: Staphylococcus aureus, read-out: (G) MRSA (ATCC33591) MIC
How it was run: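 CLSI broth microdilution in triplicate, 5×10^5 CFU/mL final, ≤0.5% DMSO; MHB for S. aureus, CA-MHB for E. coli and E. faecium, CA-MHB plus 3% laked horse blood for S. pyogenes (5% CO2).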

T. brucei = T. brucei growth inhibition; format: cell-based, Trypanosoma brucei; conditions: read-out: (D) T. brucei EC50

Compound	EC50 (T. cruzi)	MIC [1]	IC50 (MetRS (T. brucei))	(F) S. aureus (ATCC 29213) MIC [2]	MIC [2]	IC50 (MetRS (C. parvum))	EC50 (C. parvum)	MIC [3]	EC50 (T. brucei; Trypanosoma brucei)	EC50 (T. brucei)	(I) E. faecium (ATCC 51559) MIC [1]	MIC ([1]; ATCC51559|VRE)	MIC ([3]; ATCC33591|MRSA)	MIC ([2]; ATCC29213|MSSA)	(G) MRSA (ATCC33591) MIC [3]
O=c1n(Cc2nc3ccc(F)nc3[nH]2)cc(Cc2ccc(Cl)cc2Cl)n1C1CC1 [Compound 2070, 3-cyclopropyl-4-[(2,4-dichlorophenyl)methyl]-1-({5-fluoro-1H-imidazo[4,5-b]pyridin-2-yl}methyl)-2,3-dihydro-1H-imidazol-2-one]	133 nM	0.0246 µg/mL (≈ 0.0569 µM)	< 40 nM	0.0371 µg/mL	0.0609 µg/mL (≈ 0.141 µM)	< 40 nM	> 2000 nM	–	–	–	–	–	–	–	–
COc1ccc(-c2cncc3nc(Cc4nc5nc(Cl)ccc5[nH]4)cn23)c(Cl)c1 [Compound 2156, 2-({5-chloro-1H-imidazo[4,5-b]pyridin-2-yl}methyl)-5-(2-chloro-4-methoxyphenyl)imidazo[1,2-a]pyrazine]	319 nM	1.49 µg/mL (≈ 3.5 µM)	< 40 nM	0.946 µg/mL	1.1 µg/mL (≈ 2.59 µM)	< 40 nM	1290 nM	0.285 µg/mL (≈ 0.67 µM)	32 nM	–	–	–	–	–	–
CC(C)(N)Cn1c(Cc2ccc(Cl)cc2Cl)cn(Cc2nc3nc(Cl)ccc3[nH]2)c1=O [Compound 2212, 5-(2,4-dichlorobenzyl)-1-(2-amin0-2-methylpropyl)-3-((5-chloro-1H-imidazo[4,5-b]pyridin-2-yl)methyl)-1H-imidazol-2(3H)-one]	236 nM	0.512 µg/mL (≈ 1.07 µM)	< 40 nM	1.33, μg/ml and 1.65 μg/ml	1.72 µg/mL (≈ 3.58 µM)	45.7 nM	> 2000 nM	–	3.03 nM	–	0.426 µg/mL	–	–	–	–
COC(=O)Cn1c(C(O)c2ccc(Cl)cc2Cl)cn(Cc2nc3ccc(Cl)nc3[nH]2)c1=O (centres unmarked) [Compound 2217, methyl 2-(3-((5-chloro-3H-imidazo[4,5-b]pyridin-2-yl)methyl)-5-((2,4-dichlorophenyl)(hydroxy)methyl)-2-oxo-2,3-dihydro-1H-imidazol-1-yl)acetate]	2600 nM	0.691 µg/mL (≈ 1.39 µM)	< 40 nM	3.12, μg/ml and 3.27 μg/ml	> 2.5 µg/mL	59.3 nM	> 2000 nM	–	11.6 nM	–	–	–	–	–	–
NC(=O)Cn1c(C(=O)c2ccc(Cl)cc2Cl)cn(Cc2nc3ccc(Cl)nc3[nH]2)c1=O [Compound 2234, 2-[3-({5-chloro-1H-imidazo[4,5-b]pyridin-2-yl}methyl)-5-(2,4-dichlorobenzoyl)-2-oxo-2,3-dihydro-1H-imidazol-1-yl]acetamide]	2100 nM	1.06 µg/mL (≈ 2.21 µM)	–	–	–	< 40 nM	> 2000 nM	> 8 µg/mL	9.17 nM	7.98 nM	–	–	–	–	–
COc1ccc(-c2nccc3nn(Cc4nc5nc(Cl)ccc5[nH]4)cc23)c(Cl)c1 [Compound 2247, 2-({5-chloro-1H-imidazo[4,5-b]pyridin-2-yl}methyl)-4-(2-chloro-4-methoxyphenyl)-2H-pyrazolo[4,3-c]pyridine]	1650 nM	1.08 µg/mL (≈ 2.54 µM)	–	1.43 µg/mL	1.18 µg/mL (≈ 2.77 µM)	218 nM	> 2000 nM	1.46 µg/mL (≈ 3.43 µM)	200 nM	–	–	–	–	–	1.58 µg/mL

The remaining molecules from weak to strong by EC50 (T. cruzi), led by results:

EC50 (T. cruzi)	MIC [1]	IC50 (MetRS (T. brucei))	(F) S. aureus (ATCC 29213) MIC [2]	MIC [2]	IC50 (MetRS (C. parvum))	EC50 (C. parvum)	MIC [3]	EC50 (T. brucei; Trypanosoma brucei)	EC50 (T. brucei)	(I) E. faecium (ATCC 51559) MIC [1]	MIC ([1]; ATCC51559|VRE)	MIC ([3]; ATCC33591|MRSA)	MIC ([2]; ATCC29213|MSSA)	(G) MRSA (ATCC33591) MIC [3]	Compound
819 nM	0.175 µg/mL (≈ 0.345 µM)	–	–	1.07 µg/mL (≈ 2.11 µM)	< 40 nM	> 2000 nM	0.482 µg/mL (≈ 0.949 µM)	< 0.91 nM	1.47 nM	–	–	–	–	–	CCNC(=O)Cn1c(C(=O)c2ccc(Cl)cc2Cl)cn(Cc2nc3nc(Cl)ccc3[nH]2)c1=O [Compound 2227, 2-[3-({5-chloro-1H-imidazo[4,5-b]pyridin-2-yl}methyl)-5-(2,4-dichlorobenzoyl)-2-oxo-2,3-dihydro-1H-imidazol-1-yl]—N-ethylacetamide]
650 nM	0.327 µg/mL (≈ 0.728 µM)	–	–	0.926 µg/mL (≈ 2.06 µM)	84.7 nM	1980 nM	0.762 µg/mL (≈ 1.7 µM)	91.4 nM	–	–	–	–	–	–	COc1ccc(-c2cccc3c2CN(Cc2nc4c(C#N)c(Cl)ccc4[nH]2)C3)c(Cl)c1 [Compound 2229, 5-chlor0-2-((4-(2-chloro-4-methoxyphenyl)isoindolin-2-yl)methyl)-1H-benzo[d]imidazole-4-carbonitrile]
541 nM	–	–	2.21 µg/mL	–	< 40 nM	> 2000 nM	–	–	–	0.555 µg/mL	0.531 µg/mL (≈ 1.04 µM)	1.57 µg/mL (≈ 3.08 µM)	1.66 µg/mL (≈ 3.26 µM)	–	CCOC(=O)Nn1c(C(=O)c2ccc(Cl)cc2Cl)cn(Cc2nc3ccc(Cl)nc3[nH]2)c1=O [Compound 2244]
538 nM	0.694 µg/mL (≈ 1.4 µM)	< 40 nM	–	–	52.9 nM	–	0.822 µg/mL (≈ 1.66 µM)	61.1 nM	–	–	–	–	–	–	COC(=O)Nc1ccc(-c2ccc(OC)cc2Cl)n2cc(Cc3nc4ccc(Cl)cc4[nH]3)nc12 [Compound 2181, methyl N-{2-[(6-chloro-1H-1,3-benzodiazol-2-yl)methyl]-5-(2-chloro-4-methoxyphenyl)imidazo[1,2-a]pyridin-8-yl}carbamate]
297 nM	0.28 µg/mL (≈ 0.589 µM)	< 40 nM	1.53 µg/mL	2.4 µg/mL (≈ 5.05 µM)	< 40 nM	> 2000 nM	1.8 µg/mL (≈ 3.79 µM)	–	–	–	–	–	–	–	COc1ccc(Cc2cn(Cc3nc4nc(Cl)ccc4[nH]3)c(=O)n2CC(C)(C)N)c(Cl)c1 [Compound 2208, 3-(2-amin0-2-methylpropyl)-1-({5-chloro-1H-imidazo[4,5-b]pyridin-2-yl}methyl)-4-[(2-chloro-4-methoxyphenyl)methyl]-2,3-dihydro-1H-imidazol-2-one]
244 nM	0.415 µg/mL (≈ 0.947 µM)	–	–	–	53.9 nM	> 2000 nM	0.448 µg/mL (≈ 1.02 µM)	71.3 nM	–	–	–	–	–	–	COc1ccc(-c2cccc3c2CN(Cc2nc4cc(Cl)ccc4[nH]2)C3=O)c(Cl)c1 [Compound 2232, 2-((5-chloro-1H-benzo[d]imidazol-2-yl)methyl)-4-(2-chloro-4-methoxyphenyl)isoindolin-1-one]
213 nM	0.467 µg/mL (≈ 1.09 µM)	< 40 nM	0.898 µg/mL	1.69 µg/mL (≈ 3.94 µM)	< 40 nM	–	1.32 µg/mL (≈ 3.07 µM)	29.3 nM	35 nM	–	–	–	–	–	COc1ccc(-c2cnn3c2CN(Cc2nc4nc(Cl)ccc4[nH]2)CC3)c(Cl)c1 [Compound 2172, 5-chlor0-2-((3-(2-chloro-4-methoxyphenyl)-6,7-dihydropyrazolo[1,5-a]pyrazin-5(4H)-yl)methyl)-1H-imidazo[4,5-b]pyridine]
